# Patent publication US20240360146A1, “BRUTON'S TYROSINE KINASE AND MUTANT DEGRADER, COMPOSITION AND APPLICATION THEREOF” (HANGZHOU HEALZEN THERAPEUTICS CO., LTD., priority 2021, published 2024)
# Target: T1, BTK (Homo sapiens, UniProt Q06187)
# T1 construct: endogenous in cells; host or cells: Mino cells
# Assay: BTK degradation activity test in Mino cells
# Type: cell-based
# Conditions: 16 h incubation, Western blot or Elisa
# Experimental: Mino cell line cells were seeded at 500,000 to 1,000,000 cells/well in a 6-well plate. The compounds were diluted to different concentrations and added to the plate, and after 16 h of incubation, cells were harvested. After lysing the cells, the total protein concentration in each well was determined using the BCA method. The amount of BTK was determined using Western blot or Elisa method. The amount of undegraded BTK protein at each drug concentration was compared with the amount of BTK protein in the blank control group to calculate the degradation rate. The degradation curve was drawn based on the degradation rate at each concentration, and the half degradation concentration (DC50) was calculated by fitting.
# T1 sequence (Q06187 whole entry): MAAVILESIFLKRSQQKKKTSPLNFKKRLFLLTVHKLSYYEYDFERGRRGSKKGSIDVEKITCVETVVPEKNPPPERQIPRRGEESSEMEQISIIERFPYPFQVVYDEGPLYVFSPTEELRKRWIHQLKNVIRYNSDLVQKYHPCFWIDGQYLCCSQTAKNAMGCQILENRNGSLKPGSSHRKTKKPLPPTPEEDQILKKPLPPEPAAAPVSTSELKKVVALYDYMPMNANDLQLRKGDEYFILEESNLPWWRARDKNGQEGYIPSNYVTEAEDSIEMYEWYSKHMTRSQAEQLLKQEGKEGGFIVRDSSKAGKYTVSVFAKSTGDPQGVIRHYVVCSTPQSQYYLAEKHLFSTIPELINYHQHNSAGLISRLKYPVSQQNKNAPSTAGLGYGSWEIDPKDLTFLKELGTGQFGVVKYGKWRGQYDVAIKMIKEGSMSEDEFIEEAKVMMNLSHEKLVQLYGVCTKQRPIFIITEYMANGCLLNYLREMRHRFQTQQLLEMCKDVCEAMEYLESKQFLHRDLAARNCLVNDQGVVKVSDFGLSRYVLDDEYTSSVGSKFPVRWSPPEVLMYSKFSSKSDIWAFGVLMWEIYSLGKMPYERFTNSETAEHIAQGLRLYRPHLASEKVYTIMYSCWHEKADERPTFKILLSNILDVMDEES
row,SMILES,DC50
1,"NC(=O)c1nnc(N2CCC[C@@H](N3CCN(CC(F)(F)F)C3=O)C2)nc1Nc1ccc(N2CCC(CN3CCN(c4cc5c(cc4F)C(=O)N(C4CCC(=O)NC4=O)C5=O)CC3)CC2)cc1 (stereo partly drawn) [Compound 142, 5-((4-(4-((4-(2-(2,6-dioxopiperidin-3-yl)-6-fluoro-1,3-dioxoisoindolin-5-yl)piperazin-1-yl)methyl)piperidin-1-yl)phenyl)amino)-3-((R)-3-(2-oxo-3-(2,2,2-trifluoroethyl)imidazolin-1-yl)piperidin-1-yl)-1,2,4-triazin-6-carboxamide]",< 1 nM
2,"NC(=O)c1nnc(N2CCCC(N3CCN(c4ccccc4)C3=O)C2)nc1Nc1ccc(C2CCN(CC3CCN(c4ccc5c(c4)C(=O)N(C4CCC(=O)NC4=O)C5=O)CC3)CC2)cc1 (stereo not shown) [Compound 064, 5-((4-(1-((1-(2-(2,6-dioxopiperidin-3-yl)-1,3-dioxoisoindol-5-yl)piperidin-4-yl)methyl)piperidin-4-yl)phenyl)amino)-3-(3-(2-oxo-3-phenylimidazolin-1-yl)piperidin-1-yl)-1,2,4-triazin-6-carboxamide]",< 1 nM
3,"NC(=O)c1nnc(N2CCCC(N3CCN(C4COC4)C3=O)C2)nc1Nc1ccc(C2CCN(CC3CCN(c4ccc5c(c4)C(=O)N(C4CCC(=O)NC4=O)C5=O)CC3)CC2)cc1 (stereo not shown) [Compound 062, 5-((4-(1-((1-(2-(2,6-dioxopiperidin-3-yl)-1,3-dioxoisoindol-5-yl)piperidin-4-yl)methyl)piperidin-4-yl)phenyl)amino)-3-(3-(3-(oxetan-3-yl)-2-oxoimidazolin-1-yl)piperidin-1-yl)-1,2,4-triazin-6-carboxamide]",< 1 nM
4,"CC(C)N1CCN(C2CCCN(c3nnc(C(N)=O)c(Nc4ccc(C5CCN(CC6CCN(c7ccc8c(c7)C(=O)N(C7CCC(=O)NC7=O)C8=O)CC6)CC5)cc4)n3)C2)C1=O (stereo not shown) [Compound 055, 5-((4-(1-((1-(2-(2,6-dioxopiperidin-3-yl)-1,3-dioxoisoindol-5-yl)piperidin-4-yl)methyl)piperidin-4-yl)phenyl)amino)-3-(3-(3-isopropyl-2-oxoimidazolin-1-yl)piperidin-1-yl)-1,2,4-triazin-6-carboxamide]",< 1 nM
5,CN1CCN([C@@H]2CCCN(c3nnc(C(N)=O)c(Nc4ccc(N5CCN(CC6CCN(c7ccc(NC8CCC(=O)NC8=O)cc7C(F)(F)F)CC6)CC5)c(F)c4)n3)C2)C1=O (stereo partly shown) [Compound 252],< 1 nM
6,CCc1nc(C(N)=O)c(Nc2ccc(C3(C)CCN(C4CN(c5ccc6c(c5)C(=O)N(C5CCC(=O)NC5=O)C6=O)C4)CC3)cc2)nc1N1CCCC(N2CCN(C)C2=O)C1 (stereo not shown) [Compound 007],< 1 nM
7,"Cc1cc(N2CCC(CN3CCC(c4ccc(Nc5nc(N6CCC[C@@H](N7CCN(C)C7=O)C6)nnc5C(N)=O)c(CO)c4)CC3)CC2)ccc1N1CCC(=O)NC1=O [Compound 238, (R)-5-((4-(1-((1-(4-(2,4-dioxotetrahydropyrimidin-1(2H)-yl)-3-methylphenyl)piperidin-4-yl)methyl)piperidin-4-yl)-2-(hydroxymethyl)phenyl)amino)-3-(3-(3-methyl-2-oxoimidazolidin-1-yl)piperidin-1-yl)-1,2,4-triazin-6-carboxamide]",< 1 nM
8,"CN1CCN(C2CC3CC2N(c2nnc(C(N)=O)c(Nc4ccc(C5CCN(CC6CCN(c7cc8c(cc7F)C(=O)N(C7CCC(=O)NC7=O)C8=O)CC6)CC5)cc4)n2)C3)C1=O (stereo not shown) [Compound 111, 5-((4-(1-((1-(2-(2,6-dioxopiperidin-3-yl)-6-fluoro-1,3-dioxoisoindol-5-yl)piperidin-4-yl)methyl)piperidin-4-yl)phenyl)amino)-3-(6-(3-methyl-2-oxoimidazolin-1-yl)-2-azabicyclo[2.2.1]heptan-2-yl)-1,2,4-triazin-6-carboxamide]",< 1 nM
9,"NC(=O)c1ncc(N2CCCC(N3CCN(C4COC4)C3=O)C2)nc1Nc1ccc(N2CC3(C2)CN(c2ccc4c(c2)C(=O)N(C2CCC(=O)NC2=O)C4=O)C3)cc1 (stereo not shown) [Compound 018, 3-((4-(6-(2-(2,6-dioxopiperidin-3-yl)-1,3-dioxoisoindol-5-yl)-2,6-diazaspirocyclo[3.3]heptan-2-yl)phenyl)amino)-5-(3-(3-(oxetan-3-yl)-2-oxoimidazolin-1-yl)piperidin-1-yl)pyrazin-2-carboxamide]",< 1 nM
10,"CN1CCN([C@@H]2CCCN(c3nnc(C(N)=O)c(Nc4ccc(N5CCN(CC6CCN(c7ccc(NC8CCC(=O)NC8=O)c8c7OCCO8)CC6)CC5)c(F)c4)n3)C2)C1=O (stereo partly drawn) [Compound 211, 5-((4-(4-((1-(8-((2,6-dioxopiperidin-3-yl)amino)-2,3-dihydrobenzo[b][1,4]dioxan-5-yl)piperidin-4-yl)methyl)piperazin-1-yl)-3-fluorophenyl)amino)-3-((R)-3-(3-methyl-2-oxoimidazolidin-1-yl)piperidin-1-yl)-1,2,4-triazin-6-carboxamide]",< 1 nM
11,"CN1CCN([C@@H]2CCCN(c3nnc(C(N)=O)c(Nc4ccc(N5CCN(CC6CCN(c7ccc(C(=O)NC8CCC(=O)NC8=O)c8[nH]cnc78)C6)CC5)c(F)c4)n3)C2)C1=O (stereo partly drawn) [Compound 178, 4-(3-((4-(4-((6-carbamoyl-3-((R)-3-(3-methyl-2-oxoimidazolidin-1-yl)piperidin-1-yl)-1,2,4-triazin-5-yl)amino)-2-fluorophenyl)piperazin-1-yl)methyl)pyrrolidin-1-yl)-N-(2,6-dioxopiperidin-3-yl)-1Hbenzimidazol-7-carboxamide]",< 1 nM

# Results, then the molecule that gave them:
row,DC50,SMILES
1,< 1 nM,"NC(=O)c1nnc(N2CCCC(N3CCN(c4ccccc4)C3=O)C2)nc1Nc1ccc2c(c1)CCN(CC1CCN(c3ccc4c(c3)C(=O)N(C3CCC(=O)NC3=O)C4=O)CC1)C2 (stereo not shown) [Compound 094, 5-((2-((1-(2-(2,6-dioxopiperidin-3-yl)-1,3-dioxoisoindol-5-yl)piperidin-4-yl)methyl)-1,2,3,4-tetrahydroisoquinolin-6-yl)amino)-3-(3-(2-oxo-3-phenylimidazolin-1-yl)piperidin-1-yl)-1,2,4-triazin-6-carboxamide]"
2,< 1 nM,"CC1(c2ccc(Nc3nc(N4CCCC(N5CCN(C6COC6)C5=O)C4)cnc3C(N)=O)cc2)CCN(C2CN(c3ccc4c(c3)C(=O)N(C3CCC(=O)NC3=O)C4=O)C2)CC1 (stereo not shown) [Compound 002, 3-((4-(1-(1-(2-(2,6-dioxopiperidin-3-yl)-1,3-dioxoisoindol-5-yl)azetidine-3-yl)-4-methylpiperidin-4-yl)phenyl)amino)-5-(3-(3-(oxetan-3-yl)-2-oxoimidazolin-1-yl)piperidin-1-yl)pyrazin-2-carboxamide]"
3,< 1 nM,"NC(=O)c1nnc(N2CCCC(N3CCN(CC(F)(F)F)C3=O)C2)nc1Nc1ccc(C2CCN(CC3CCN(c4ccc5c(c4)C(=O)N(C4CCC(=O)NC4=O)C5=O)CC3)CC2)cc1 (stereo not shown) [Compound 057, 5-((4-(1-((1-(2-(2,6-dioxopiperidin-3-yl)-1,3-dioxoisoindol-5-yl)piperidin-4-yl)methyl)piperidin-4-yl)phenyl)amino)-3-(3-(2-oxo-3-(2,2,2-trifluoroethyl)imidazolin-1-yl)piperidin-1-yl)-1,2,4-triazin-6-carboxamide]"
4,< 1 nM,"CN1CCN([C@@H]2CCCN(c3nnc(C(N)=O)c(Nc4ccc(N5CCN(CC6CCN(c7ccc(NC8CCC(=O)NC8=O)c(F)c7)C6)CC5)c(F)c4)n3)C2)C1=O (stereo partly drawn) [Compound 204, 5-((4-(4-((1-(4-((2,6-dioxopiperidin-3-yl)amino)-3-fluorophenyl)pyrrolidin-3-yl)methyl)piperazin-1-yl)-3-fluorophenyl)amino)-3-((R)-3-(3-methyl-2-oxoimidazolidin-1-yl)piperidin-1-yl)-1,2,4-triazin-6-carboxamide]"
5,< 1 nM,"CN1CCN(C2CCCN(c3nnc(C(N)=O)c(Nc4ccc(C5(C)CCN(C6CN(c7ccc8c(c7)C(=O)N(C7CCC(=O)NC7=O)C8=O)C6)CC5)cc4)n3)C2)C1=O (stereo not shown) [Compound 079, 5-((4-(1-(1-(2-(2,6-dioxopiperidin-3-yl)-1,3-dioxoisoindol-5-yl)azetidin-3-yl)-4-methylpiperidin-4-yl)phenyl)amino)-3-(3-(3-methyl-2-oxoimidazolin-1-yl)piperidin-1-yl)-1,2,4-triazin-6-carboxamide]"
6,< 1 nM,"CN1CCN([C@@H]2CCCN(c3nnc(C(N)=O)c(Nc4ccc(N5CCN(C[C@H]6CCN(c7ccc(N8CCC(=O)NC8=O)cc7)C6)CC5)c(F)c4)n3)C2)C1=O [Compound 151, 5-((4-(4-(((R)-1-(4-(2,4-dioxotetrahydropyrimidin-1(2H)-yl)phenyl)pyrrolidin-3-yl)methyl)piperazin-1-yl)-3-fluorophenyl)amino)-3-((R)-3-(3-methyl-2-oxoimidazolin-1-yl)piperidin-1-yl)-1,2,4-triazin-6-carboxamide]"
7,< 1 nM,"CN1CCN(C2CC3CC2N(c2nnc(C(N)=O)c(Nc4ccc5c(c4)CCN(CC4CCN(c6ccc7c(c6)C(=O)N(C6CCC(=O)NC6=O)C7=O)CC4)C5)n2)C3)C1=O (stereo not shown) [Compound 107, 5-((2-((1-(2-(2,6-dioxopiperidin-3-yl)-1,3-dioxoisoindol-5-yl)piperidin-4-yl)methyl)-1,2,3,4-tetrahydroisoquinolin-6-yl)amino)-3-(6-(3-methyl-2-oxoimidazolin-1-yl)-2-azabicyclo[2.2.1]heptan-2-yl)-1,2,4-triazin-6-carboxamide]"
8,< 1 nM,"CC1(c2ccc(Nc3nc(N4CCCC(N5CCN(C6COC6)C5=O)C4)cnc3C(N)=O)cc2)CCN(C2CCN(c3ccc4c(c3)C(=O)N(C3CCC(=O)NC3=O)C4=O)CC2)CC1 (stereo not shown) [Compound 012, 3-((4-(1′-(2-(2,6-dioxopiperidin-3-yl)-1,3-dioxoisoindol-5-yl)-4-methyl-[1,4′-bipiperidin]-4-yl)phenyl)amino)-5-(3-(3-(oxetan-3-yl)-2-oxoimidazolin-1-yl)piperidin-1-yl)pyrazin-2-carboxamide]"
